Each block holds one compound with its values, some of them ahead of it.
Target: AMPK
Experiment: AMPK activation, enzyme-linked immunosorbent assay
Type: biochemical
Method: Compounds of Table 1 were assayed for their ability to activate AMPK using an enzyme-linked immunosorbent assay.
Compounds of Table 2 were assayed for their ability to activate AMPK using an enzyme-linked immunosorbent assay.
Compounds of Table 3 were assayed for their ability to activate AMPK using an enzyme-linked immunosorbent assay.
Compounds of Table 4 were assayed for their ability to activate AMPK using an enzyme-linked immunosorbent assay.
Compounds of Table 5 were assayed for their ability to activate AMPK using an enzyme-linked immunosorbent assay.

[1] = compounds of Table 5 (Table 10)

EC50 [1]: < 1000 nM
Compound: O=C(NC1CCN(Cc2ccncc2)CC1)c1ccc(OC2CCN(c3ccc(C(F)(F)F)cc3)CC2)c(F)c1 [5-28, 3-fluoro-N-(1-(pyridin-4-ylmethyl)piperidin-4-yl)-4-(1-(4-(trifluoromethyl)phenyl)piperidin-4-yloxy)benzamide]

EC50 (compounds of Table 4 (Table 9)): < 500 nM
Compound: N#Cc1ccc(CN2CCC(NC(=O)c3ccc(C(=O)N4CCN(Cc5ccc(C#N)cc5)CC4)cn3)CC2)cc1 [4-1, 5-(4-(4-cyanobenzyl)piperazine-1-carbonyl)-N-(1-(4-cyanobenzyl)piperidin-4-yl)picolinamide]

EC50 (compounds of Table 3 (Table 8)): < 100 nM
Compound: N#Cc1ccc(CN2CCC(NC(=O)c3ccc4c(c3)CN(Cc3ccc(F)cc3)CC4)CC2)cc1 [3-34, N-(1-(4-cyanobenzyl)piperidin-4-yl)-2-(4-fluorobenzyl)-1,2,3,4-tetrahydroisoquinoline-7-carboxamide]

EC50 [1]: 1000 to 10000 nM
Compound: N#Cc1ccc(N2CCC(Oc3cccc(C(=O)NC4CCN(Cc5ccncc5)CC4)c3)CC2)cc1 [5-88, N-(1-(pyridin-4-ylmethyl)piperidin-4-yl)-3-(1-(4-cyanophenyl)piperidin-4-yloxy)benzamide]

EC50 (compounds of Table 3 (Table 8)): < 100 nM
Compound: N#Cc1ccc(CN2CCC(NC(=O)c3cnc(OC4CCN(c5ccc(C(F)(F)F)cc5)CC4)cn3)CC2)cc1 [3-22, N-(1-(4-cyanobenzyl)piperidin-4-yl)-5-(1-(4-(trifluoromethyl)phenyl)piperidin-4-yloxy)pyrazine-2-carboxamide]

EC50 (compounds of Table 3 (Table 8)): < 100 nM
Compound: O=C(NC1CCN(C(=O)c2ccc(F)cc2)CC1)c1nc2ccc(OC3CCN(c4ccc(C(F)(F)F)cc4)CC3)cc2o1 [3-4, N-(1-(4-fluorobenzoyl)piperidin-4-yl)-6-(1-(4-(trifluoromethyl)phenyl)piperidin-4-yloxy)benzo[d]oxazole-2-carboxamide]

EC50 [1]: < 1000 nM
Compound: O=C(NC1CCN(Cc2ccccc2)CC1)c1cc(Cl)c(OC2CCN(Cc3ccc(Cl)cc3)CC2)c(Cl)c1 [5-75, N-(1-benzylpiperidin-4-yl)-3,5-dichloro-4-(1-(4-chlorobenzyl)piperidin-4-yloxy)benzamide]

EC50 [1]: < 1000 nM
Compound: CC(C)(C)OC(=O)NCCCNC(=O)c1ccc(OC2CCN(Cc3ccc(C(F)(F)F)cc3)CC2)cc1 [5-95, tert-butyl 3-(4-(1-(4-(trifluoromethyl)benzyl)piperidin-4-yloxy)benzamido)propylcarbamate]

EC50 [1]: > 100000 nM
Compound: N#Cc1ccc(CN2CCC(Oc3ccc(C(=O)NC4CCNCC4)cc3)CC2)cc1 [5-79, 4-(1-(4-cyanobenzyl)piperidin-4-yloxy)-N-(piperidin-4-yl)benzamide]

Continued, compound first:

Compound: CN(C(=O)c1cc2cc(OC3CCN(c4ccc(C(F)(F)F)cc4)CC3)ccc2o1)C1CCN(C(=O)OC(C)(C)C)CC1 [1-102, tert-butyl 4-(N-methyl-5-(1-(4-(trifluoromethyl)phenyl)piperidin-4-yloxy)benzofuran-2-carboxamido)piperidine-1-carboxylate]
EC50 (compounds of Table 1 (Table 6)): 1000 to 5000 nM

Compound: O=C(N[C@@H]1CCN(Cc2ccncc2)C1)c1ccc(OC2CCN(c3ccc(C(F)(F)F)cc3)CC2)cn1 [1-25, (R)-N-(1-(pyridin-4-ylmethyl)pyrrolidin-3-yl)-5-(1-(4-(trifluoromethyl)phenyl)piperidin-4-yloxy)picolinamide]
EC50 (compounds of Table 1 (Table 6)): 100 to 500 nM

Compound: O=C(NC1CCN(Cc2ccncc2)CC1)c1cc2ccc(OC3CCN(c4ccc(OC(F)(F)F)cc4)CC3)cc2o1 [1-88, N-(1-(pyridin-4-ylmethyl)piperidin-4-yl)-6-(1-(4-(trifluoromethoxy)phenyl)piperidin-4-yloxy)benzofuran-2-carboxamide]
EC50 (compounds of Table 1 (Table 6)): < 100 nM

Compound: O=C(NC1CCN(Cc2ccccc2)CC1)c1ccc2[nH]c3c(c2c1)CN(C(=O)OCc1ccccc1)CC3 [2-2, benzyl 8-(1-(4-benzyl)piperidin-4-ylcarbamoyl)-3,4-dihydro-1H-pyrido[4,3-b]indole-2(5H)-carboxylate]
EC50 (compounds of Table 2 (Table 7)): 10000 to 50000 nM

Compound: O=S(=O)(NC1CCNCC1)c1ccc(OC2CCN(c3ccc(C(F)(F)F)cc3)CC2)nc1 [1-55, N-(piperidin-4-yl)-6-(1-(4-(trifluoromethyl)phenyl)piperidin-4-yloxy)pyridine-3-sulfonamide]
EC50 (compounds of Table 1 (Table 6)): 1000 to 5000 nM

Compound: O=C(N[C@@H]1CCN(S(=O)(=O)c2cccnc2)C1)c1cc2cc(OC3CCN(c4ccc(C(F)(F)F)cc4)CC3)ccc2o1 [1-126, (R)-N-(1-(pyridin-3-ylsulfonyl)pyrrolidin-3-yl)-5-(1-(4-(trifluoromethyl)phenyl)piperidin-4-yloxy)benzofuran-2-carboxamide]
EC50 (compounds of Table 1 (Table 6)): 1000 to 5000 nM

Compound: O=C(NC1CCN(c2ccc(F)cc2)CC1)c1ccc2[nH]c3c(c2c1)CN(Cc1ccc(C(F)(F)F)cc1)CC3 [2-15, N-(1-(4-fluorophenyl)piperidin-4-yl)-2-(4-(trifluoromethyl)benzyl)-2,3,4,5-tetrahydro-1H-pyrido[4,3-b]indole-8-carboxamide]
EC50 (compounds of Table 2 (Table 7)): < 500 nM

Compound: O=C(NC1CCN(Cc2ccncc2)CC1)c1cncc(OC2CCN(c3ccc(C(F)(F)F)cc3)CC2)c1 [1-14, N-(1-(pyridin-4-ylmethyl)piperidin-4-yl)-5-(1-(4-(trifluoromethyl)phenyl)piperidin-4-yloxy)nicotinamide]
EC50 (compounds of Table 1 (Table 6)): < 100 nM

Compound: N#Cc1ccc(S(=O)(=O)N2CCC(NC(=O)c3ccc4[nH]c5c(c4c3)CN(Cc3ccc(C(F)(F)F)cc3)CC5)CC2)cc1 [2-21, N-(1-(4-cyanophenyl-sulfonyl)piperidin-4-yl)-2-(4-(trifluoro-methyl)benzyl)-2,3,4,5-tetrahydro-1H-pyrido[4,3-b]indole-8-carboxamide]
EC50 (compounds of Table 2 (Table 7)): 500 to 1000 nM

Compound: O=C(NC1CCN(Cc2cccnc2)CC1)c1ccc(OC2CCN(c3ccc(C(F)(F)F)cc3)CC2)cn1 [1-5, N-(1-(pyridin-3-ylmethyl)piperidin-4-yl)-5-(1-(4-(trifluoromethyl)phenyl)piperidin-4-yloxy)picolinamide]
EC50 (compounds of Table 1 (Table 6)): < 100 nM

Compound: N#Cc1ccc(CN2CCC(NC(=O)c3ccc4[nH]c5c(c4c3)CN(Cc3ccc(C(N)=O)cc3)CC5)CC2)cc1 [2-44, 2-(4-carbamoylbenzyl)-N-(1-(4-cyanobenzyl)piperidin-4-yl)-2,3,4,5-tetrahydro-1H-pyrido [4,3-b]indole-8-carboxamide]
EC50 (compounds of Table 2 (Table 7)): 10000 to 50000 nM

Compound: O=C(NC1CCN(S(=O)(=O)c2cccnc2)CC1)c1ccc2[nH]c3c(c2c1)CN(Cc1ccc(C(F)(F)F)cc1)CC3 [2-22, N-(1-(pyridin-3-ylsulfonyl)piperidin-4-yl)-2-(4-(trifluoromethyl)benzyl)-2,3,4,5-tetrahydro-1H-pyrido[4,3-b]indole-8-carboxamide]
EC50 (compounds of Table 2 (Table 7)): 500 to 1000 nM

Compound: O=C(NC1CCNCC1)c1cc2cc(OC3CCN(c4ccc(C(F)(F)F)cc4)CC3)ccc2o1 [1-86, N-(piperidin-4-yl)-5-(1-(4-(trifluoromethyl)phenyl)piperidin-4-yloxy)benzofuran-2-carboxamide]
EC50 (compounds of Table 1 (Table 6)): > 10000 nM

Compound: O=C(NC1CCN(Cc2ccc(F)cc2)CC1)c1cc2ccc(OC3CCN(c4ccc(C(F)(F)F)cc4)CC3)cc2o1 [1-91, N-(1-(4-fluorobenzyl)piperidin-4-yl)-6-(1-(4-(trifluoromethyl)phenyl)piperidin-4-yloxy)benzofuran-2-carboxamide]
EC50 (compounds of Table 1 (Table 6)): > 10000 nM

Compound: O=C(NC1CCN(C(=O)Nc2ccc(C(F)(F)F)cc2)CC1)c1ccc2[nH]c3c(c2c1)CN(Cc1ccc(C(F)(F)F)cc1)CC3 [2-33, 2-(4-(trifluoromethyl)benzyl)-N-(1-(4-(trifluoromethyl)phenylcarbamoyl)piperidin-4-yl)-2,3,4,5-tetrahydro-1H-pyrido[4,3-b]indole-8-carboxamide]
EC50 (compounds of Table 2 (Table 7)): 1000 to 5000 nM

Compound: O=C(N[C@H]1CCNC1)c1ccc(OC2CCN(c3ccc(C(F)(F)F)cc3)CC2)cn1 [1-27, (S)-N-(pyrrolidin-3-yl)-5-(1-(4-(trifluoromethyl)phenyl)piperidin-4-yloxy)picolinamide]
EC50 (compounds of Table 1 (Table 6)): > 10000 nM

Compound: O=S(=O)(NC1CCN(Cc2ccc(C(F)(F)F)cc2)CC1)c1ccc(OC2CCN(c3ccc(C(F)(F)F)cc3)CC2)nc1 [1-58, N-(1-(4-(trifluoromethyl)benzyl)piperidin-4-yl)-6-(1-(4-(trifluoromethyl)phenyl)piperidin-4-yloxy)pyridine-3-sulfonamide]
EC50 (compounds of Table 1 (Table 6)): < 100 nM

Compound: CC(C)(C)OC(=O)N1CCC(NC(=O)c2ccc3[nH]c4c(c3c2)CN(c2ccc(F)cc2)CC4)CC1 [2-38, tert-butyl 4-(2-(4-fluorophenyl)-2,3,4,5-tetrahydro-1H-pyrido [4,3-b]indole-8-carboxamido)piperidine-1-carboxylate]
EC50 (compounds of Table 2 (Table 7)): 10000 to 50000 nM

Compound: O=C(NC1CCN(C(=O)c2ccncc2)CC1)c1cc2cc(OC3CCN(c4ccc(C(F)(F)F)cc4)CC3)ccc2o1 [1-115, N-(1-isonicotinoylpiperidin-4-yl)-5-(1-(4-(trifluoromethyl)phenyl)piperidin-4-yloxy)benzofuran-2-carboxamide]
EC50 (compounds of Table 1 (Table 6)): < 100 nM

Compound: COC(=O)c1ccc(CN2CCC(NC(=O)c3ccc(OC4CCN(c5ccc(C(F)(F)F)cc5)CC4)nc3)CC2)cc1 [1-45, methyl 4-((4-(6-(1-(4-(trifluoromethyl)phenyl)piperidin-4-yloxy)nicotinamido)piperidin-1-yl)methyl)benzoate]
EC50 (compounds of Table 1 (Table 6)): > 10000 nM

Compound: CN(C(=O)c1cc2cc(OC3CCN(c4ccc(C(F)(F)F)cc4)CC3)ccc2o1)C1CCN(Cc2ccccn2)CC1 [1-117, N-methyl-N-(1-(pyridin-2-ylmethyl)piperidin-4-yl)-5-(1-(4-(trifluoromethyl)phenyl)piperidin-4-yloxy)benzofuran-2-carboxamide]
EC50 (compounds of Table 1 (Table 6)): < 100 nM

Compound: O=C(NC1CCN(CCc2ccccc2)CC1)c1ccc2[nH]c3c(c2c1)CN(Cc1ccc(C(F)(F)F)cc1)CC3 [2-14, N-(1-phenethyl-piperidin-4-yl)-2-(4-(trifluoromethyl)benzyl)-2,3,4,5-tetrahydro-1H-pyrido[4,3-b]indole-8-carboxamide]
EC50 (compounds of Table 2 (Table 7)): < 500 nM

Compound: O=C(NC1CCN(Cc2ccc(F)cc2)CC1)c1ccnc(OC2CCN(c3ccc(C(F)(F)F)cc3)CC2)c1 [1-22, N-(1-(4-fluorobenzyl)piperidin-4-yl)-2-(1-(4-(trifluoromethyl)phenyl)piperidin-4-yloxy)isonicotinamide]
EC50 (compounds of Table 1 (Table 6)): 1000 to 5000 nM

From US9511058B2, “Methods for using carboxamide, sulfonamide and amine compounds” (Rigel Pharmaceuticals, Inc., priority 2010, dated 2016)
